Here are results for 13 compounds from paper PMC5309220, “Screening for Small Molecule Inhibitors of Statin-Induced APP C-terminal Toxic Fragment Production” (Frontiers in Pharmacology, 2017).

The test system of data set [1] is cerivastatin-induced APPΔC31 production in CHO-7W cells. Put plainly: APPΔC31 ELISA validation assay, cerivastatin-induced. The class given is cell-based, Chinese hamster. The conditions noted are these: 24 h; for APPΔC31 Inh. (mean %): CHO-7W cells, test concentration not given; for APPΔC31 Inh. (mean %) / inhibition of APPΔC31 production (in words): 10 μM cerivastatin; for IC50: Cricetulus griseus, (E) ELISA, cerivastatin-induced, read-out: IC50 (E), APPΔC31 inhibition; for IC50 / inhibition of APPΔC31 production (in words): CHO-7W; for inhibition of APPΔC31 production (in words): thapsigargin 0.033-0.3 μM, 2,5-Di-tert-butylhydroquinone 1 and 10 μM. Here is the method: The APPΔC31 ELISA developed in partnership with Enzo Life Sciences (ADI-900-227) follows a standard sandwich ELISA design wherein a monoclonal N-terminal APP-specific antibody is used to coat the wells of the microtiter plate (capture antibody) and the anti-APPΔC31 cleavage site-specific polyclonal antibody serves as the detection antibody. An HRP-conjugated secondary antibody is then added and a colorimetric signal generated by enzymatic conversion of the tetramethylbenzidine (TMB) substrate. Protein levels were first determined using a colorimetric coomassie assay (Coomassie Plus, Thermo).
A subset of hits from our HTS was validated in a secondary assay. […] Thapsigargin also acts as a sarco/endoplasmic reticulum calcium ATPase (SERCA) inhibitor. Therefore, another SERCA inhibitor, 2,5-Di-tert-butylhydroquinone, was also added to the testing. In this secondary assay, CHO-7W cells were cultured as described above and plated into 24-well dishes at ∼200K/well. […] These hits were selected for their potency in primary screen, their structural features, their known activities, and availability of compound for additional testing. There were cerivastatin-only (negative control), + QVD-OPh (positive control), and for viability, vehicle-only (negative) controls. Cells were harvested by removing the media to a tube, adding […] trypsin to detach cells then neutralizing with media. […] Cells were centrifuged at 5000 rpm (2300 × g) for 5 min. Cell pellets were frozen until use. Forty μL cold RIPA buffer plus complete protease inhibitors (Roche) was added to each pellet and the pellets were reconstituted by pipetting up and down, incubating on ice for 30 min, vortexing, and centrifugation as above. Cell lysate supernatants were then assayed by APPΔC31 ELISA as described above. For most compounds, multiple/repeat studies were performed and two wells used for each condition. Statistical comparison was performed using one-way ANOVA for multiple comparisons, with a Dunnett post hoc test to compare each condition to the control. Further dose-response studies were performed on select compounds.

The test system of data set [2] is CHO-7W cells. The conditions noted are these: with 10 μM cerivastatin.
Data set [3] concerns APPΔC31 production in CHO-7W cells. The data set is described as follows: Statin induction of APPΔC31, ELISA. The format is cell-based, Chinese hamster. Conditions: 24 h, statins at 1, 5 and 10 μM. Here is the method:
An HRP-conjugated secondary antibody is then added and a colorimetric signal generated by enzymatic conversion of the tetramethylbenzidine (TMB) substrate. Protein levels were first determined using a colorimetric coomassie assay (Coomassie Plus, Thermo).
APPΔC31 was determined in cell lysates by ELISA.

The test system of data set [4] is cerivastatin-induced APPΔC31 in CHO-7W cells. Put plainly: APPΔC31 AlphaLISA dose-response, cerivastatin-induced. The class given is cell-based, Chinese hamster. The conditions noted are these: 24 h; for inhibition of cerivastatin-induced APPΔC31 (in words): dose-response curves; for % Min (APPΔC31 dose-response): AlphaLISA dose-response (Figure 5C), cerivastatin-stimulated. The protocol:
The APPΔC31 AlphaLISA assay (Figures 2C–E) was run directly in the plate with the cell lysate as described above in “AlphaLISA to detect APPΔC31.” APPΔC31 levels were measured using the Envision plate reader and data were normalized to DMSO (100% APPΔC31 production) and Q-VD-OPh (MP Biomedicals) pan-caspase inhibitor at 30 μM (0%); these controls were present on each plate. In addition, some compounds of interest were further analyzed in a dose-response curve to determine IC50 values.
The broad-spectrum pan-caspase inhibitor Q-VD-OPh served as the positive control.
Lysates were prepared and APPΔC31 determined by ELISA. (B) CHO-7W cells were treated with 10 μM cerivastatin plus increasing doses of caspase and MEK inhibitors for 24 h. Lysates were prepared and APPΔC31 determined by AlphaLISA. Click here for additional data file.

Data set [5] relates to CHO-7W cells. The data set is described as follows: Total protein in CHO-7W cell lysates (Coomassie Plus). The class given is cell-based, Chinese hamster. Conditions: n = 1. The protocol:
(§1) In an additional study (Supplementary Figure S5A), measurement of the α secretase fragment of full length (FL) APP – soluble APP alpha (sAPPα) – was performed using cell media by ELISA (IBL). Furthermore, in two studies (Supplementary Figures S5B,C), total protein levels in CHO-7W cell lysates were determined by Coomassie Plus protein assay (Pierce).
(§2) Supplementary file Data_Sheet_1.docx: FIGURE S5 Effect of lead compounds on protein concentration and sAPPα. […] (B) Total protein from lysates of CHO-7W cells treated with either 30 μM QVD or 10 μM Sp alone for 24 h was similar to the vehicle control (n = 1). (C) Total protein from CHO-7W lysates treated with 10 μM CS alone or in combination with QVD, Sp, or 3′F-Sp at the concentrations shown increased (n = 1). Statistical analysis was performed using one-way ANOVA and Dunnett post-test for comparison to the 10 μM CS control (^∗∗p < 0.001, ^∗∗∗p < 0.0001). Click here for additional data file.

Data set [6] in a line: In vivo pharmacokinetic analysis of spiperone. On the set-up: species or system mice (C57B6). Here is the method: As PAMPA is merely a predictive analysis of brain permeability, a pharmacokinetic (PK) study with spiperone was performed. […] Another 5 mice were injected intraperitoneally (IP) at the same dose. One mouse was euthanized from each dosing route group at 1, 2, 4, 6, and 8 h. This is done by ketamine/xylazine over- anesthesia followed by blood collection for plasma isolation by cardiac puncture, and transcardial perfusion of tissue with saline to remove residual blood from the brain. Both plasma and brain tissue were sent to Integrated Analytical Solutions (IAS, Berkeley, CA, USA) for compound level analysis using an LC-MS-MS method.

A short description of data set [7]: PAMPA / immobilized artificial membrane (IAM.PC.DD2) chromatography. The format is in vitro ADME.
For data set [8], the system named is sAPPα in CHO-7W cultures. Put plainly: sAPPα ELISA in cell media. The format is cell-based, Chinese hamster. Conditions: QVD, Sp, 3′F-Sp at 10, 30, and 30 mM, respectively (so in the source), with 10 μM cerivastatin, 24 h, vs CS alone, n = 2. The protocol:
as §1, §2

[9] abbreviates: low concentrations (thapsigargin 0.033-0.3 μM, 2,5-Di-tert-butylhydroquinone 1 and 10 μM).

Read-outs that look alike come from different tables or passages of the source.

For `CO[C@H]1C[C@@H]2CC[C@@H](C)[C@@](O)(O2)C(=O)C(=O)N2CCCC[C@H]2C(=O)O[C@H]([C@H](C)C[C@@H]2CC[C@@H](O)[C@H](OC)C2)CC(=O)[C@H](C)/C=C(\C)[C@@H](O)[C@@H](OC)C(=O)[C@H](C)C[C@H](C)/C=C/C=C/C=C/1C` [Rapamycin], in data set [1], the “APPΔC31 Inh. (mean %)” value stood at 99% and the IC50 is over 10 µM. The “cell survival rescue (in words)” value in data set [2] (at 30 μM, among hits from HTS) was “greatest cell survival rescue effects”.

As for `CC(C)(C)c1cc(O)c(C(C)(C)C)cc1O` [2,5-Di-tert-butylhydroquinone], the “inhibition of APPΔC31 production (in words)” value in data set [1] is reported as “very effective”. The “cell survival rescue (in words)” value in data set [2] (setting [9]) is listed as “highest cell survival”.

On to `CC(C)c1c(C(=O)Nc2ccccc2)c(-c2ccccc2)c(-c2ccc(F)cc2)n1CC[C@@H](O)C[C@@H](O)CC(=O)O` [Atorvastatin], for which the “induction of APPΔC31 (in words)” value in data set [3] is given as “much less effective”.

As for `O=c1c(O)c(-c2ccc(O)cc2)oc2cc(O)cc(O)c12` [Kaempferol], in data set [1], the “APPΔC31 Inh. (mean %)” value turned out to be 65% and the half-maximal inhibitory concentration (IC50) is over 10 µM.

Regarding `Cn1cc(C2=C(c3ccc(Cl)cc3Cl)C(=O)NC2=O)c2ccccc21` [SB216763], in data set [1], the “APPΔC31 Inh. (mean %)” value was found to be 54% and the IC50 is over 10 µM.

For the compound `CS/C(N)=C(C#N)/C(C#N)=C(\N)SC` [U0124], in data set [4] (10 μM cerivastatin, AlphaLISA), the “inhibition of cerivastatin-induced APPΔC31 (in words)” value is on record as “ineffective”.

Turning to `O=C(CCCN1CCC2(CC1)C(=O)NCN2c1ccccc1)c1ccc(F)cc1` [Spiperone], the “effect on protein concentration in lysates, compound alone (in words)” value in data set [5] (QVD alone at 30 μM, spiperone alone at 10 μM, 24 h, vs vehicle) is “did not lower protein concentration”. The “effect on total protein concentration with cerivastatin (in words)” value in data set [5] (QVD, spiperone, 3′fluorobenzylspiperone at 30, 10, and 10 μM, respectively, with 10 μM cerivastatin) was “increased total protein concentration”. For the same compound, in data set [6] (male, C57B6, brain and plasma, other: subcutaneous and intraperitoneal (both routes), 0.25 mg/mouse, SQ and IP routes, read-out: brain:plasma ratio), the Kp was about 0.5. Further, the Cmax in data set [6] (male, C57B6, brain, mouse, intraperitoneal (IP), 10 mg/kg, n = 1 per time point, read-out: peak brain level (Cmax)) is about 205 ng/g. For the same compound, the “time of peak brain level” value in data set [6] (mouse, IP injection at 10 mg/kg) amounted to 1 h; in data set [6] (mouse, both the subcutaneous and intraperitoneal routes) it was 1 h. The compound also returned a peak brain level in data set [6] (mouse, subcutaneous, 50 μL of 5 mg/mL in DMSO, n = 1 per time point) of about 70 ng/g. Moreover, the “BBB Penetration Prediction” value in data set [7] (from KIAM/MW^4 x 10^10, cut-off 0.85) is “high (If KIAM/MW^4x10^10 > 0.85 the BBB penetration is predicted to be high)”. The “% Min (APPΔC31 dose-response)” value in data set [4] is reported as 23%. The “cell survival rescue (in words)” value in data set [2] (at 30 μM, among hits from HTS) is “greatest cell survival rescue effects”. For the same compound, in data set [8], the “effect on sAPPα (in words)” value was “increased sAPPα”.

For `N#CC(=C(/N)Sc1ccccc1N)/C(C#N)=C(/N)Sc1ccccc1N` [U0126], the “reduction of APPΔC31” value in data set [4] (from 10 to 50 μM, 10 μM cerivastatin, AlphaLISA) was about 25%.

Consider `CC/C(=C(\c1ccccc1)c1ccc(OCCN(C)C)cc1)c1ccccc1` [Tamoxifen], for which the “APPΔC31 Inh. (mean %)” value in data set [1] worked out at 56%.

With `N#C/C(=C(/N)Sc1ccc(N)cc1)c1ccccc1C(F)(F)F` [SL327], the “inhibition of cerivastatin-induced APPΔC31 (in words)” value in data set [4] (10 μM cerivastatin, AlphaLISA) is on record as “ineffective”.

As to `O=c1[nH]c2ccccc2n1C1CCN(CCCC(c2ccc(F)cc2)c2ccc(F)cc2)CC1` [Pimozide], in data set [1], the “APPΔC31 Inh. (mean %)” value is listed as 98%. The “KIAM (IAM capacity factor)” value in data set [7] (IAM.PC.DD2 column, water/methanol gradient) came out at 3.3. The “% Min (APPΔC31 dose-response)” value in data set [4] is on record as 19%. Further, in data set [4] (Cricetulus griseus, (A) AlphaLISA, cerivastatin-induced, read-out: IC50 (A), APPΔC31 inhibition), the half-inhibitory concentration (IC50) was determined as 3.6 µM. For the same compound, the “cell survival rescue (in words)” value in data set [2] (at 30 μM, among hits from HTS) is recorded as “greatest cell survival rescue effects”.

As to `C/C=C(/C)C(=O)O[C@H]1C(C)=C2[C@H]([C@@H]1OC(=O)CCCCCCC)[C@@](C)(OC(C)=O)C[C@H](OC(=O)CCC)[C@@]1(O)[C@H]2OC(=O)[C@@]1(C)O` [Thapsigargin], in data set [1], the “APPΔC31 Inh. (mean %)” value was determined as 97%, the “inhibition of APPΔC31 production (in words)” value was “remarkably potent inhibitor” and the 50% inhibitory concentration (IC50) worked out at 0.077 µM. In addition, the “cell survival rescue (in words)” value in data set [2] (setting [9]) was “highest cell survival”.

As for `Oc1ccc(-c2nc(-c3ccncc3)c(-c3ccc(F)cc3)[nH]2)cc1` [SB202190], in data set [1], the “APPΔC31 Inh. (mean %)” value was 58% and the IC50 was over 10 µM.
